What is called IC50 is the point on the concentration scale where inhibition reaches its midpoint.

Where a name gives a salt, the structure may show the parent alone. Where only a bound is given, the exact number is not on record here.

Assay [1] has as its target T1, LXR beta (Homo sapiens, UniProt P55055).
T1 construct: LXR alpha or beta LBD-GST; purchased ThermoFisher PV4658
T1 sequence (P55055 222-460 limits assumed): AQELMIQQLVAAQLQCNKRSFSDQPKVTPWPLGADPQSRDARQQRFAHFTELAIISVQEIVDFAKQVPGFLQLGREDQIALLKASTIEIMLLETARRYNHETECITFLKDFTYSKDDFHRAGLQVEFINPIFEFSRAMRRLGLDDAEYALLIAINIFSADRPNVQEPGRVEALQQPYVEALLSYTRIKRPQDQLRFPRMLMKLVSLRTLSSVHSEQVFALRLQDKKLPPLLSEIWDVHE
Briefly: LanthaScreen TR-FRET LXR beta Coactivator Assay (cell-free binding). Particulars: TR-FRET, 12-point curve; read-out: Cell free binding LXRβ IC50. The procedure: (§1) To evaluate the ability of novel LXR agonists to bind to the LXR alpha and beta receptor, a cell-free binding assay was performed using a LanthaScreen TR-FRET LXR alpha Coactivator Assay Kit (ThermoFisher, Cat # PV4655) and LXR beta Coactivator Assay Kit (ThermoFisher, Cat # PV4658). The assay was performed according to the manufacturer's instructions. Briefly, a 3-fold serial dilution of LXR agonists were prepared in 100% DMSO starting at 100 μM (100× of final). Serial dilutions were further diluted 50-fold in nuclear receptor buffer F with 5 mM DTT, and transferred to a 384-well assay plate. Next, Fluorescein-D22, LXR alpha or beta LBD-GST, and Tb anti-GST antibody was sequentially added to 384-well assay plate. The plate was then incubated at rt for 2.5 hours while being protected from light. […] The IC50 values were determined using a four-parameter logistic equation over a 12-point response curve (GraphPad Prism).
On the technique in general: TR-FRET usually uses a lanthanide donor and a delayed reading to cut background.

Assay [2] has as its target T2, LXR alpha (Homo sapiens, UniProt Q13133).
T2 construct: LXR alpha or beta LBD-GST; purchased ThermoFisher PV4655
T2 sequence (Q13133 209-447 limits assumed): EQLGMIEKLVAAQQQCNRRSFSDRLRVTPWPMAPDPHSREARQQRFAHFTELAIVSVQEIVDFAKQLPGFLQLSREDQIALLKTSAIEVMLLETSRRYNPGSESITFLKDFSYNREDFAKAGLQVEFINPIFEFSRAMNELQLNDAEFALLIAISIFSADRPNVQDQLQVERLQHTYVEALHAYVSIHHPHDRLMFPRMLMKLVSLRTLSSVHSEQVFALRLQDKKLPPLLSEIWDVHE
Briefly: LanthaScreen TR-FRET LXR alpha Coactivator Assay (cell-free binding). Particulars: TR-FRET, 12-point curve; read-out: Cell free binding LXRα IC50. The procedure:
as §1

For assay [3], the system named is THP1/LXR-Luc cells. In words: THP1/LXR-Luc luciferase reporter bioassay. It counts as cell-based. Particulars: Homo sapiens, THP-1, 48 hours; for EC50: read-out: Activation of THP1/LXR-Luc cells: EC50; for Emax: relative to maximum activation of free payload 9d, read-out: Activation of THP1/LXR-Luc cells: Fold of activation. From the text: The fold activation in the cell-based assays (as described in Example 68, below) was defined based on the maximum activation of the free payload 9d.
A bioassay was developed to assess the activity of LXR agonists after internalization of an agonist or of a ncADC into cells and binding to LXR, a nuclear receptor, using a commercially available LXR reporter (referred to as LXR-Luc) that contains the firefly luciferase gene under control by minimal CMV promoter and tandem repeats of the LXR transcriptional response element. For this assay, a THP1 cell line, which is a human monocytic leukaemia line, was engineered to express full length human Her2 (expressing amino acids M1 through V1255 of accession number NP_004439.2). The subsequent stable cell line was further transduced with a Cignal LXR Luc Reporter (Qiagen, Cat # CLS-7041L). The resulting stable cell line is referred to herein as THP1/Her2/LXR-Luc. The Her2 cell surface expression on THP1/Her2/LXR-Luc cell line was confirmed by FACS (data not shown).
Additionally, a THP1 cell line was transduced with a Cignal LXR Luc Reporter (Qiagen, Cat # CLS-7041L) without the addition of Her2. The resulting stable cell line is referred to herein as THP1/LXR-Luc. All of the antibodies used in the subsequent bioassays were assessed for their ability to internalize and release a payload on the bioassay cell line used.
This example assessed the ability of the LXR agonists provided herein, reference compounds, and anti-Her2 antibody-LXR ncADC to activate LXR. The samples were tested in the THP1/LXR-Luc/Her2 bioassay. For the assay, either THP1/LXR-Luc cells or THP1/LXR-Luc/Her2 cells were seeded onto white 96 well plates at 30,000 cells/well in media containing RPMI supplemented with 10% FBS and pencillin/streptomycin (complete media). Subsequently 3-fold serial dilutions of antibody drug conjugates, unconjugated antibodies, or free payloads were added to the cells at final concentration ranging from 100 nM to 0.01 nM. After 48-hour or 72-hour incubation, luciferase activity was determined after the addition of One-Glo™ reagent (Promega, Cat # E6130) to each well of cells. Relative light units (RLUs) were measured on a Victor luminometer (PerkinElmer) and the EC5o values were determined using a four-parameter logistic equation over a 10-point dose response curve (GraphPad Prism) (FIG. 15). The fold activation is calculated based on the maximum activation of the free payload 9d.

Assay [4] relates to THP1/LXR-Luc cells. In words: LXR-luciferase reporter bioassay in PMA-differentiated THP1/LXR-Luc cells. It counts as cell-based, human. Particulars: for EC50: Homo sapiens, THP-1, 48 h, read-out: EC50; for S/N (signal to noise, ratio of RLU of standard one over RLU of standard eight): luciferase activity. From the text: To test the efficacy of anti-MSR1 antibody-LXR conjugates in vitro, a cell-based LXR responsive luciferase reporter assay was developed. To generate the assay cell line, a LXR regulated luciferase reporter gene [Cignal Lenti LXR Reporter (luc) kit (Qiagen, Cat # CLS-001L)] was transduced into THP1 cells, and cells were selected for two weeks in puromycin. The lentivirus expresses the firefly luciferase gene under the control of a minimal CMV promoter and tandem repeats of the LXR transcriptional response element. The resulting cell line is referred to as THP1/LXR-Luc cells.
THP1/LXR-Luc cells were seeded onto 96 well plates at 40,000 cells/well in media containing RPMI supplemented with 10% FBS and pencillin/streptomycin and subsequently differentiated with 200 nM Phorbol Myristate Acetate (PMA) for 3 days. After the 3-day differentiation period, three-fold serial dilutions of antibody drug conjugates, unconjugated antibodies, or free payloads in fresh media were added to the cells at final concentration ranging from 100 nM to 0.01 nM. Media alone served as a blank control. Forty-eight hours later, luciferase activity was determined after the addition of One-Glo™ reagent (Promega, Cat # E6130) to each well. Relative light units (RLUs) were measured on a Victor luminometer (PerkinElmer) and EC50 values were determined using a four-parameter logistic equation over a 10-point dose response curve (GraphPad Prism). The signal to noise (S/N) was determined by calculating the ratio of RLU of standard one over RLU of standard eight for each of the unconjugated anti-MSR1 antibodies or free payloads. “LP #” represents a linker-payload for which the corresponding structures are provided elsewhere herein, and “P #” represents a payload for which the corresponding structures are provided elsewhere herein.
Background: A reporter such as luciferase makes a cellular process visible.

The mark [5] stands for this setting: 48-hour time point, stimulation of THP1/Luc cells.
Where [6] appears, read: PMA-differentiated THP1/LXR-Luc cells, 48 hours, luciferase activity (One-Glo), 10-point dose response 100 nM to 0.01 nM.
The mark [7] stands for this setting: PMA-differentiated THP1/LXR-Luc cells, 48 hours.

Regarding `C[C@]1(C(=O)NC(=O)[C@@]2(C)CCC[C@]3(C)c4cc(NC(=O)[C@@H](N)CCC(=O)O)ccc4CC[C@@H]23)CCC[C@]2(C)c3cc(O)ccc3CC[C@@H]12` [Compound 9o, (4S)-4-Amino-4-{[(4bS,8S,8aR)-8-{[(1S,4aS,10aR)-6-hydroxy-1,4a-dimethyl-1,2,3,4,4a,9,10,10a-octahydrophenanthrene-1-carbonyl]carbamoyl}-4b,8-dimethyl-4b,5,6,7,8,8a,9,10-octahydrophenanthren-3-yl]carbamoyl}butanoic acid; Trifluoroacetic Acid Salt], the IC50 was below 10 nM in assay [1] and 10 to 100 nM in assay [2]. Besides, the EC50 in assay [3] is at most 1 nM; in assay [4] (setting [5]) it was 0.37 to 2.09 nM; in assay [4] (setting [6]), 0.37 nM. Moreover, the Emax in assay [3] was above 75%. The “S/N (signal to noise, ratio of RLU of standard one over RLU of standard eight)” value in assay [4] (setting [7]) was 8.3.

As to `C[C@]1(C(=O)NC(=O)[C@@]2(C)CCC[C@]3(C)c4cc(NC(=O)[C@@H](N)CCCCN)ccc4CC[C@@H]23)CCC[C@]2(C)c3cc(O)ccc3CC[C@@H]12` [Compound 9l, (1S,4aS,10aR)—N-[(1S,4aS,10aR)-6-Hydroxy-1,4a-dimethyl-1,2,3,4,4a,9,10,10a-octahydrophenanthrene-1-carbonyl]-6-[(2S)-2,6-diaminohexanamido]-1,4a-dimethyl-1,2,3,4,4a,9,10,10a-octahydrophenanthrene-1-carboxamide; Trifluoroacetic Acid Salt], the IC50 in assay [1] and in assay [2] was 10 to 100 nM throughout. Moreover, the EC50 in assay [3] was 1 to 10 nM; in assay [4] (setting [5]) it was 0.37 to 2.09 nM; in assay [4] (setting [6]), 2.09 nM. Besides, in assay [3], the Emax is above 75%. Moreover, the “S/N (signal to noise, ratio of RLU of standard one over RLU of standard eight)” value in assay [4] (setting [7]) is 8.9.

With `C[C@]1(C(=O)NC(=O)[C@@]2(C)CCC[C@]3(C)c4cc(NC(=O)CNCC(=O)O)ccc4CC[C@@H]23)CCC[C@]2(C)c3cc(O)ccc3CC[C@@H]12` [Compound 9r, 2-[({[(4bS,8S,8aR)-8-{[(1S,4aS,10aR)-6-Hydroxy-1,4a-dimethyl-1,2,3,4,4a,9,10,10a-octahydrophenanthrene-1-carbonyl]carbamoyl}-4b,8-dimethyl-4b,5,6,7,8,8a,9,10-octahydrophenanthren-3-yl]carbamoyl}methyl)amino]acetic Acid; Trifluoroacetic Acid Salt], the IC50 in assay [1] was below 10 nM. For the same molecule, the IC50 in assay [2] is below 10 nM. Further, in assay [3], the EC50 was 10 to 100 nM and the Emax was above 75%.

In the case of `C[C@]1(C(=O)NC(=O)[C@@]2(C)CCC[C@]3(C)c4cc(CN)ccc4CC[C@@H]23)CCC[C@]2(C)c3cc(O)ccc3CC[C@@H]12` [Compound 9p, (1S,4aS,10aR)-6-(Aminomethyl)-N-((1S,4aS,10aR)-6-hydroxy-1,4a-dimethyl-1,2,3,4,4a,9,10,10a-octahydrophenanthrene-1-carbonyl)-1,4a-dimethyl-1,2,3,4,4a,9,10,10a-octahydrophenanthrene-1-carboxamide; Trifluoroacetic Acid Salt], the IC50 in assay [1] was below 10 nM. In addition, the IC50 in assay [2] was 10 to 100 nM. In assay [3], the EC50 lay in the range of 1 to 10 nM and the Emax was above 75%.

Take `C[C@]1(C(=O)NC(=O)[C@@]2(C)CCC[C@]3(C)c4cc(NC(=O)CCN)ccc4CC[C@@H]23)CCC[C@]2(C)c3cc(O)ccc3CC[C@@H]12` [Compound 9i, (1S,4aS,10aR)-6-(3-Aminopropanamido)-N-((1S,4aS,10aR)-6-hydroxy-1,4a-dimethyl-1,2,3,4,4a,9,10,10a-octahydrophenanthrene-1-carbonyl)-1,4a-dimethyl-1,2,3,4,4a,9,10,10a-octahydrophenanthrene-1-carboxamide]: the IC50 in assay [1] was below 10 nM. In assay [2], the IC50 is below 10 nM. Besides, in assay [3], the EC50 was in the range of 10 to 100 nM and the Emax was 25 to 75%.

As to `C[C@]1(C(=O)NC(=O)[C@@]2(C)CCC[C@]3(C)c4cc(OCCO)ccc4CC[C@@H]23)CCC[C@]2(C)c3cc(O)ccc3CC[C@@H]12` [Compound 9b, (1S,4aS,10aR)-6-Hydroxy-N-((1S,4aS,10aR)-6-(2-hydroxyethoxy)-1,4a-dimethyl-1,2,3,4,4a,9,10,10a-octahydrophenanthrene-1-carbonyl)-1,4a-dimethyl-1,2,3,4,4a,9,10,10a-octahydrophenanthrene-1-carboxamide], the IC50 in assay [1] is below 10 nM. In addition, in assay [2], the IC50 was below 10 nM. For the same molecule, in assay [3], the EC50 fell in the range of 1 to 10 nM and the Emax is above 75%.

The values are drawn from US12338199B2, “Bis-octahydrophenanthrene carboxamides and protein conjugates thereof” (REGENERON PHARMACEUTICALS, INC., priority 2017, dated 2025).
